The test system of one test is Escherichia coli. Format: cell-based. Conditions: 16 h. The procedure: Bactocasitone (manufactured by Difco Laboratory Co.) was dissolved at a concentration of 1% in purified water, the pH was adjusted to 7.0 with 1M sodium hydroxide, the solution was sterilized at 115° C. for 15 minutes and a basal medium (liquid medium) was prepared. Each sample was dissolved at a concentration of […] in purified water, sterilization was performed by using a sterilization filter (manufactured by […] Co.) and test media, prepared by adding samples at concentrations of 1, 5, 10, 50 and 100 ppm to the basal medium, as well as a control medium with no added samples, were prepared. […] wherein A is the difference in turbidity of the test culture medium (the difference between the turbidity of the test culture medium after 16 hours of culture and the turbidity of the test culture medium before the culturing) and B is the turbidity of the control medium (the difference between the turbidity of the control culture medium after 16 hours of culture and the turbidity of the control culture medium before the culturing). The percentages of the rate of inhibition of proliferation are not in weight (same hereinafter).

The subject of test [1] is gram-positive bacteria and gram-negative bacteria, including aerobic and anaerobic bacteria and yeast. Briefly: Antimicrobial spectrum, MIC in liquid medium (Experiment 12), overall. Type of test: cell-based. Conditions: many types of gram-positive and gram-negative bacteria and yeast; peptone or PYG medium. The procedure: The various microorganisms shown in Table 3 and in Table 4 were incubated for 16 to 20 hours in 2 ml of peptone medium which consisted of 1% Bactopeptone (manufactured by Difco Laboratory Co.), or in 2 ml of PYG medium which consisted of 1% Bactopeptone (manufactured by Difco Laboratory Co.), 1% glucose and 0.05% yeast extract. The antimicrobial peptide was added to each medium at various ratios of 0 μg/ml to 60 μg/ml. Standard bacterial strains of various microorganisms in the logarithmic phase were inoculated into the various media at a cell concentration of 10^6 /ml and incubated at 37° C., with the exception of the bacterial strains mentioned in the footnotes of the tables. The growth of the various microorganisms was studied by measuring the light absorption at 660 nm.

The subject of the next test is various fungi. Conditions: 20 h.

Where two headings read alike, the source gives them in different places. Positions of bridges follow the written chain, without caps; N, C: chain ends. Chains are numbered I, II in the order given. No end group written: not given here.

The values that follow come from patent US5304633A, “Fragments of lactoferrin having potent antimicrobial activity” (priority 1990, dated 1994).

With “I: VSQPEATKCFQWQRNMRKVRGPPVSCIKRDSPIQCI / II: GRRRRSVQWCA (disulfide I:9-I:26, I:35-II:10) [antimicrobial peptide of Example 3]”, the “inhibitory rate (rate of inhibition of E. coli proliferation)” value was 3% with Escherichia coli (1 ppm); 86% in the test on Escherichia coli (5 ppm); 100% in the test with Escherichia coli (10 ppm); 100% in the test with Escherichia coli (50 ppm); 100% with Escherichia coli (100 ppm).
As to `CC[C@H](C)[C@@H]1NC(=O)[C@H](CO)NC(=O)[C@@H]2CCCN2C(=O)[C@H](C)NC(=O)CNC(=O)[C@H](CC(C)C)NC(=O)[C@H](CCCCN)NC(=O)[C@H](CCCCN)NC(=O)[C@H](CCSC)NC(=O)[C@H](CCCNC(=N)N)NC(=O)[C@H](Cc2c[nH]c3ccccc23)NC(=O)[C@H](CCC(N)=O)NC(=O)[C@H](Cc2c[nH]c3ccccc23)NC(=O)[C@H](CCCNC(=N)N)NC(=O)[C@H](CCCNC(=N)N)NC(=O)[C@@H](NC(=O)[C@H](CCCCN)NC(=O)[C@@H](N)Cc2ccccc2)CSSC[C@@H](C(=O)N[C@H](C(=O)N[C@@H](CCCNC(=N)N)C(=O)N[C@@H](CCCNC(=N)N)C(=O)N[C@@H](C)C(=O)N[C@@H](Cc2ccccc2)C(=O)O)C(C)C)NC(=O)[C@H]([C@@H](C)O)NC1=O` [antimicrobial peptide of Example 1], the “concentration showing antimicrobial activity (MIC, summary of Tables 3 and 4)” value in test [1] is reported as “less than 45 μg/ml”. Besides, the “concentration showing antimicrobial activity (MIC, summary of Table 7)” value with various fungi was “less than 45 μg/ml”.
